# Results: patent US12527777B2, “Sustained release pyridostigmine compositions” (priority 2018, dated 2026)
# Key:
# [1] = in vivo; cited from earlier work
# [2] = Effect of relative humidity on adsorption of water vapour (deliquescence); format: physicochemical
compound,measurement,setting,value
"CN(C)C(=O)Oc1ccc[n+](C)c1 [Pyridostigmine, (1-methylpyridin-1-ium-3-yl) N,N-dimethylcarbamate]",biological half-life,[1],2-3 hours
CN(C)C(=O)Oc1ccc[n+](C)c1 [pyridostigmine bromide],relative humidity (RH) at which deliquescence is exhibited,[2],33%
